US4540692A, “Anti-inflammatory N-(1-oxo-2,4,6-cycloheptatrienyl)2H-1,2-benzothiazine-3-carboxamide 1,1-dioxide derivatives, compositions, and method of use” (Fujisawa Pharmaceutical Co., Ltd., priority 1983, dated 1985)

Test system: carrageenin edema
Assay: Carrageenin edema test
Format: in vivo, Sprague-Dawley rats
Conditions: rat hind paw, 10 mg/kg oral, 60 minutes prior to carrageenin (0.1 ml, 1%); edema weight 3 hours after injection
Description: Five Sprague-Dawley rats were fasted for 24 hours and submitted to the study. First, 0.1 ml of carrageenin (1%) was subcutaneously injected into the paw of the right hind limb and after 3 hours the rat was sacrificed. The untreated limb and the edematous limb were respectively incised off at the junction of the tibia and weighed. The difference in weight between the edematous limb and the untreated limb was taken as the weight of the edema.
The test compound was orally administered 60 minutes prior to the administration of carrageenin and the swelling in the treated limb was compared with that in the control limb. The test compound was administered in a dose of 10 mg/kg.

With `CN1C(C(=O)Nc2cccccc2=O)=C(O)c2ccccc2S1(=O)=O` [Example 1, 4-hydroxy-2-methyl-N-(1-oxo-2,4,6-cycloheptatrien-2-yl)-2H-1,2-benzothiazine-3-carboxamide 1,1-dioxide] the “% Inhibition of carrageenin edema” value was 51.4%.
